ChEMBL document CHEMBL3301361, “Experimental in vitro DMPK and physicochemical data on a set of publicly disclosed compounds”
Residues, ends and D or L forms follow the SMILES beside them.

How the values were obtained:
[1] = in vitro; details: human, plasma
[2] = physchem; details: octan-1-ol/water

SMILES	fraction unbound at 5 h ([1]; PPB)	logD ([2]; pH 7.4, LogD7.4)	fraction unbound at 5 h [1]	logD ([2]; pH 7.4)
N#Cc1ccc2c(c1)NC(=O)C2c1ncnc2cc(OCCCN3CCOCC3)ccc12 (stereo not given)	0.013	2.99	–	–
COc1ccc2ncc(=O)n(CCN3CC[C@@H](NCc4ccc5c(n4)NC(=O)CO5)[C@@H](F)C3)c2c1	0.244	0.83	–	–
CC(=O)Nc1cnc2ccn(-c3cc(NC4CC4)n4ncc(C#N)c4n3)c2c1	0.0251	2.69	–	–
CN[C@@H](C)C(=O)N[C@H](C(=O)N[C@H]1CCCN(CCc2ccccc2OC)C1)C(C)(C)C	0.258	1.61	–	–
N#Cc1cnn2c(NC3CC3)cc(-c3cccs3)nc12	0.016	2.88	–	–
CN1CCN(C(=O)c2cccc(Cc3n[nH]c(=O)c4ccccc34)c2)CC1	0.349	0.92	–	–
O=C1COc2ccc(CNC3CCN(CCN4C(=O)COc5ccc(F)cc54)CC3)nc2N1	–	–	0.17	0.9
COc1cnc(-c2ccccn2)nc1NC(C)C	0.224	2.01	–	–
Cc1c(OCC(F)(F)F)ccnc1C[S+]([O-])c1nc2ccccc2[nH]1 (stereo not given) [LANSOPRAZOLE]	–	–	0.016	2.7
COc1ccc2ncc(=O)n(CCN3CC[C@@H](NCc4ccc5c(n4)NC(=O)CO5)[C@@H](O)C3)c2c1	0.0532	0.37	–	–
NC(=O)c1cnc(N[C@H]2CCCNC2)c2cc(-c3ccc(F)cc3)sc12	0.0262	2.01	–	–
Cc1cn([C@H]2CCCN(S(=O)(=O)c3ccc(C(=O)O)c(Oc4cccc(Cl)c4)c3)C2)c(=O)[nH]c1=O	0.04	-1.28	–	–
Cc1c(Sc2ccc(Cl)cc2)c2cc(S(C)(=O)=O)ccc2n1CC(=O)O	0.0127	0.54	–	–
COc1ccc2ccc(=O)n(CCN3CCC(NCc4cc5c(cn4)OCCO5)CC3)c2c1	0.309	1.31	–	–
NS(=O)(=O)c1ccc(CCNc2ccc3nnc(-c4ccccc4)n3n2)cc1	0.0321	2.19	–	–
COc1ccc(C(CN(C)C)C2(O)CCCCC2)cc1 (stereo not given) [VENLAFAXINE]	–	–	0.814	0.99
Cc1cc(Nc2nc(N[C@@H](C)c3ncc(F)cn3)ncc2Br)n[nH]1	0.0854	2.39	–	–
CNC1=Nc2ccc(Cl)cc2C(c2ccccc2)=[N+]([O-])C1 [CHLORDIAZEPOXIDE]	–	–	0.0229	2.41
CO[C@H]1CN(CCn2c(=O)ccc3ccc(C#N)cc32)CC[C@H]1NCc1ccc2c(n1)NC(=O)CO2	0.535	0.32	–	–
CNC(=O)c1[nH]cnc1C(=O)Nc1ccc(OC)cc1	0.134	2.2	–	–
CS(=O)(=O)c1ccc([C@@H](O)[C@@H](CF)NC(=O)C(Cl)Cl)cc1 [FLORFENICOL]	–	–	0.676	0.44
Clc1ccc(C(c2ccccc2)N2CCNCC2)cc1 (stereo not given) [NORCHLORCYCLIZINE]	0.0581	1.94	–	–
Cc1cnc(Nc2ccc(N3CCN(C)CC3)cc2)nc1Nc1cccc(S(=O)(=O)NC(C)(C)C)c1	0.0752	2.84	–	–
COc1cc(OC)c(S(=O)(=O)N(C)c2ccccc2)cc1NC(C)=O	0.179	1.1	–	–
CN1CCN(c2cc3c(Nc4ccc(F)cc4F)c(C(N)=O)cnc3cc2F)CC1	0.244	2.63	–	–
CNc1c(Br)cnc2[nH]c(-c3ccc(S(C)(=O)=O)cc3)nc12	0.0477	2.88	–	–

SMILES	fraction unbound at 5 h ([1]; PPB)	logD ([2]; pH 7.4, LogD7.4)	fraction unbound at 5 h [1]	logD ([2]; pH 7.4)
CNc1c(Br)cnc2[nH]c(-c3cccc(N)c3)nc12	0.0988	2.96	–	–
O=C1COc2ccc(CNC3CCN(CCN4C(=O)COc5ccc(OC(F)(F)F)cc54)CC3)nc2N1	–	–	0.0209	1.82
Cc1cc(Nc2nc(N[C@@H](C)c3ccc(F)cn3)c(C#N)cc2F)n[nH]1	0.0532	3.11	–	–
C[C@H](Nc1nc(Nc2ncc(C#N)s2)cc(N2CCOCC2)n1)c1ncc(F)cn1	0.117	2.26	–	–
CC(C)Nc1nc(NCc2ccccc2)c2sccc2n1	–	–	0.0029	3.9
O=C(O)c1cn(Cc2ccccc2)c2ccccc12	–	–	0.0191	1.19
CN1CCCC1CCNC(=O)c1ccc(Nc2ncc3cc(-c4ccncc4)ccc3n2)cc1 (stereo not given)	0.0081	2.01	–	–
Cn1ncc2c(=O)[nH]c(-c3ccccc3)nc21	0.0676	1.61	–	–
CC(C)[C@H](NC(=O)C[C@H](NC(=O)/C=C/c1ccccc1)c1ccccc1)C(=O)[C@@H]1C(=O)NC(=O)[C@H]1C	0.016	1.91	–	–
CC(C)C[C@H](CO)Nc1nc(SCc2cccc(C#N)c2)nc2nc(N)sc12	0.0086	3.9	–	–
CN[C@@H](C)C(=O)N[C@H](C(=O)N[C@H]1CCN(CCc2ccccc2)C1)C1CCCCC1	0.443	1.65	–	–
CCN(CC)S(=O)(=O)c1ccc(-c2nnc(SCC(=O)N3CCc4ccccc43)o2)cc1	0.0035	3.9	–	–
CNC(=O)c1cc(C(=O)c2ccc(Cl)cc2)c(Br)[nH]1	0.0139	3.1	–	–
CCOc1cc2nnc(C(N)=O)c(Nc3cc(C)ccc3F)c2cc1N1CCN(C)CC1	0.107	3.02	–	–
COc1nccnc1NS(=O)(=O)c1ccc(N)cc1	0.232	-0.65	–	–
COc1ccc(OC)c(CNc2[nH]nc3ccnc(Oc4ccccc4)c23)c1	0.0142	4.25	–	–
O=C1COc2ccc(CNC3CCN(CCN4C(=O)COc5ccc(-c6ccco6)cc54)CC3)nc2N1	–	–	0.006	2.19
CN[C@@H](C)C(=O)N[C@H](C(=O)N[C@H]1CCCN(CCc2ccccc2)C1)C1CCCCC1	0.329	1.65	–	–
CN[C@@H](C)C(=O)N[C@H](C(=O)N[C@H]1CCCN(CCc2ccc([N+](=O)[O-])cc2)C1)C(C)(C)C	0.262	1.54	–	–
C[C@]12N[C@H](Cc3ccccc31)c1ccccc12 [DIZOCILPINE]	–	–	0.529	1.6
O=C1OC2(c3ccc(O)cc3Oc3cc(O)ccc32)c2ccccc21 [FLUORESCEIN]	0.19	0	–	–
Cc1cc(Nc2nc(N[C@@H](C)c3ncc(F)cn3)ncc2C)n[nH]1	0.28	1.75	–	–
C[C@H](Nc1ncc(Cl)c(Nc2cc(N(C)C)[nH]n2)n1)c1ncc(F)cn1	0.105	2.33	–	–
N#Cc1cnn2c(N)cc(-c3ccccc3)nc12	0.0499	2.48	–	–
CN[C@@H](C)C(=O)N[C@H](C(=O)N[C@H]1CCCN(CCc2ccc(F)cc2)C1)C1CCCCC1	0.266	2.39	–	–
Cc1nc(C(=O)[C@H](C)Oc2ccc(SCCCCCc3ccccc3)cc2)sc1CCCC(=O)O	0.007	2.03	–	–

SMILES	fraction unbound at 5 h ([1]; PPB)	logD ([2]; pH 7.4, LogD7.4)	fraction unbound at 5 h [1]	logD ([2]; pH 7.4)
CCOc1ccccc1-c1ccc(-c2nc3ccncc3c(O)c2C#N)cc1	0.0007	3	–	–
COc1ccc2ccc(=O)n(CCN3CCC(NCc4cc5c(cn4)OCCO5)CC3)c2n1	0.314	1.16	–	–
NC(=O)Nc1sc(-c2ccc(CN3CCCCC3)cc2)cc1C(N)=O	0.334	1.75	–	–
COc1ccc(-c2nc(N3CCOCC3)nc(O)c2C#N)cc1	0.0647	0.2	–	–
COc1cc(Nc2ncc(C)s2)nc(N[C@@H](C)c2ncc(F)cn2)n1	0.103	2.99	–	–
c1ccc2c(c1)CCN(c1ccncc1)C2	0.431	1.4	–	–
COc1ccc2c(c1)N(CCN1CCC(NCc3ccc4c(n3)NC(=O)CO4)CC1)C(=O)CO2	–	–	0.112	0.87
COc1ccc2c(c1)N(CCN1CCC(NCc3ccc4c(n3)NC(=O)CO4)CC1)C(=O)OC2	0.258	0.5	–	–
Cc1nc(Cl)c(Cl)n1Cc1sc2c(c1C(=O)N1CC[C@@H](O)C1)c(=O)n(C)c(=O)n2CC(C)C	0.089	1.61	–	–
Cc1nc(CSc2nc(N[C@H](C)CO)c3sc(=O)[nH]c3n2)cs1	0.0086	1.73	–	–
CCOc1cccc(/C=C2\SC(=O)NC2=O)c1N1CCC[C@@H](N)C1	0.0521	1.86	–	–
CC[C@@H](CO)Nc1nc(SCc2ccccc2)nc2nc(N)sc12	0.0335	2.99	–	–
CN1CCN(C(=O)c2cc(Cc3n[nH]c(=O)c4ccccc34)ccc2F)CC1	0.289	–	–	–
CNC(=O)c1cc(Oc2ccc3c(c2)nc(Nc2ccc(C(F)(F)F)cc2)n3C)ccn1	0.005	–	–	–
CC(=O)Nc1cccc2c1c(Oc1ccc(Cl)cc1)c(C)n2CC(=O)O	0.124	–	–	–
Cc1nccn1-c1ccc(Sc2cccc(C3(C(N)=O)CCOCC3)c2)cc1	0.069	–	–	–
COCCOc1cc2ncc(C(N)=O)c(Nc3cc(C)ccc3F)c2cc1N1CCN(C)CC1	0.163	–	–	–
Cc1nc(C(F)(F)F)ccc1C(=O)Nc1ccc(Cl)c(-c2ccccn2)c1	0.0099	–	–	–
COc1cc2ncc(C(N)=O)c(Nc3ccc(Cl)c(Cl)c3)c2cc1N1CCN(C)CC1	0.0358	–	–	–
COc1ccc(-c2cc(O)nc(N)n2)cc1C#N	0.126	–	–	–
Cc1cc(Nc2nc(N[C@@H](C)c3ccc(F)cc3)ncc2Cl)n[nH]1	0.009	–	–	–
Cc1nc(N2CCOCC2)c2cc(-c3ccccc3)sc2n1	0.0042	–	–	–
CC(C)C[C@H](NC(=O)[C@H](Cc1ccccc1)NC(=O)c1cnccn1)B(O)O [BORTEZOMIB]	0.132	–	–	–
CCCCCCCC(=O)N[C@@H](CCN)C(=O)N[C@H](C(=O)N[C@@H](C)C(=O)N[C@H]1CCNC(=O)[C@H]([C@@H](C)O)NC(=O)[C@H](CCN)NC(=O)[C@H](CCN)NC(=O)[C@H](CC(C)C)NC(=O)[C@@H](Cc2ccccc2)NC(=O)[C@H](CCN)NC1=O)[C@@H](C)O (HELM PEPTIDE1{[CCCCCCCC(=O)[*:2]].[Dab].T.A.[Dab].[Dab].[dF].L.[Dab].[Dab].T}$PEPTIDE1,PEPTIDE1,5:R3-11:R2$$$V2.0)	0.112	–	–	–
